Each compound was assayed against human, KCNT1 (Homo sapiens (Human), UniProt Q5JUK3) (assay: FLIPR Tl/K Flux Assay). Details: HEK293 cells stably expressing human KCNT1; Tl+ flux stimulated with EC80 of agonist Loxapine.
Format: cell-based
Summary of the method: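 HEK293 cells stably expressing human KCNT1 were loaded with FLIPR potassium dye in HEPES/HBSS pH 7.4 with 5 mM probenecid, 1 h at 25 °C, then given test compound for 30 min at 25 °C. Tl+ flux was triggered with chloride-free buffer containing Tl+ and EC80 loxapine and read 160 s. IC50 came from Hill fits of % inhibition.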

Chain of human, KCNT1 (Q5JUK3 whole entry): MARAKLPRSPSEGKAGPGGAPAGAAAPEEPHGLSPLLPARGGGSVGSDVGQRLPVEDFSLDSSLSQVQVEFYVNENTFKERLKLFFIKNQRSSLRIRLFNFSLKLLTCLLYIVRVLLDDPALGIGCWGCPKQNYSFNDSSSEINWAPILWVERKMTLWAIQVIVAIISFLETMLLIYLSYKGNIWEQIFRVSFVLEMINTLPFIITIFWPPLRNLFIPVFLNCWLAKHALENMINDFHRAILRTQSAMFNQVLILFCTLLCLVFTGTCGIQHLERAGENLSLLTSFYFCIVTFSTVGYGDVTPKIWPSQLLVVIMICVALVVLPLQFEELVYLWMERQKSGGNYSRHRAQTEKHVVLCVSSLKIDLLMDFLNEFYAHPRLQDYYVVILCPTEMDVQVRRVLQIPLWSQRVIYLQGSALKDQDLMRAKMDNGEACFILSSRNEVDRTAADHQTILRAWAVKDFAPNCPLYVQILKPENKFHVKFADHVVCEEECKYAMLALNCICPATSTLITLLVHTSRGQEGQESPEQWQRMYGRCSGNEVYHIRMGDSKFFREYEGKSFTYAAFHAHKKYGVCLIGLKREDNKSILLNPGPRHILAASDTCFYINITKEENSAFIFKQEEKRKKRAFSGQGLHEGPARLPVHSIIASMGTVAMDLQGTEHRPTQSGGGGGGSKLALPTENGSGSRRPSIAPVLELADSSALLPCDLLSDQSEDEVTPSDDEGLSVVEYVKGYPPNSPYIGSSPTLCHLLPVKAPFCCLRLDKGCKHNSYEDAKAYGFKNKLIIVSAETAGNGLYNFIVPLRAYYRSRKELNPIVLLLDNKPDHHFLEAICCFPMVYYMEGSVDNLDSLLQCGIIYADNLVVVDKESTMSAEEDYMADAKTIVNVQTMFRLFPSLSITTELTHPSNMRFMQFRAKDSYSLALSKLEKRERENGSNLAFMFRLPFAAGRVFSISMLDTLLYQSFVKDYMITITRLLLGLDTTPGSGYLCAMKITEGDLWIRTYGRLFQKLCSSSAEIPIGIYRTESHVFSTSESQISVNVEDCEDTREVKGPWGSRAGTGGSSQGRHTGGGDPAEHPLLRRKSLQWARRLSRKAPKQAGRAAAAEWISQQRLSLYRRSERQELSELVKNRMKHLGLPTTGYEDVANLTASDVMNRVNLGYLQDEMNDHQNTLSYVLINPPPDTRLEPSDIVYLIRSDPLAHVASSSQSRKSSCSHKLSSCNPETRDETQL

| Structure (SMILES) | IC50 [nM] |
| --- | --- |
| COc1cc(C(=O)N[C@@H]2CCCCn3nc(-c4cc(C(F)(F)F)ncc4F)cc32)ccn1 [Compound I-517b] | 500 to 1000 |
| O=C(N[C@H]1CCCc2oc(-c3ccnc(C4CC4)c3)nc21)c1cn(C(F)(F)F)nc1C(F)(F)F [Compound I-519a, (S)—N-(2-(2-cyclopropylpyridin-4-yl)-4,5,6,7-tetrahydrobenzo[d]oxazol-4-yl)-1,3-bis(trifluoromethyl)-1H-pyrazole-4-carboxamide] | < 250 |
| O=C(N[C@H]1CCCc2oc(-c3ccnc(C(F)(F)F)c3)nc21)c1cn(C(F)(F)F)nc1C(F)(F)F [Compound I-520a, (S)-1,3-bis(trifluoromethyl)-N-(2-(2-(trifluoromethyl)pyridin-4-yl)-4,5,6,7-tetrahydrobenzo[d]oxazol-4-yl)-1H-pyrazole-4-carboxamide] | < 250 |
| O=C(N[C@H]1CCn2nc(-c3ccnc(C(F)(F)F)c3)cc21)c1cn(C(F)(F)F)nc1C(F)(F)F [Compound I-521a, (S)-1,3-bis(trifluoromethyl)-N-(2-(2-(trifluoromethyl)pyridin-4-yl)-5,6-dihydro-4H-pyrrolo[1,2-b]pyrazol-4-yl)-1H-pyrazole-4-carboxamide] | < 250 |
| O=C(N[C@H]1CCn2nc(-c3cc(C(F)(F)F)ncc3F)cc21)C1CC2(CC2)C1 [Compound I-522a, (S)—N-(2-(5-Fluoro-2-(trifluoromethyl)pyridin-4-yl)-5,6-dihydro-4H-pyrrolo[1,2-b]pyrazol-4-yl)spiro[2.3]hexane-5-carboxamide] | < 250 |
| CC1(C)CC(C(=O)N[C@H]2CCn3nc(-c4cc(C(F)(F)F)ncc4F)cc32)C1 [Compound I-523a, (S)-N-(2-(5-Fluoro-2-(trifluoromethyl)pyridin-4-yl)-5,6-dihydro-4H-pyrrolo[1,2-b]pyrazol-4-yl)-3,3-dimethylcyclobutane-1-carboxamide] | < 250 |
| CC12CC(C(=O)N[C@H]3CCn4nc(-c5cc(C(F)(F)F)ncc5F)cc43)(C1)C2 [Compound I-524a, (S)-N-(2-(5-Fluoro-2-(trifluoromethyl)pyridin-4-yl)-5,6-dihydro-4H-pyrrolo[1,2-b]pyrazol-4-yl)-3-methylbicyclo[1.1.1]pentane-1-carboxamide] | < 250 |
| COC12CC(C(=O)N[C@H]3CCn4nc(-c5cc(C(F)(F)F)ncc5F)cc43)(C1)C2 [Compound I-525a, (S)-N-(2-(5-Fluoro-2-(trifluoromethyl)pyridin-4-yl)-5,6-dihydro-4H-pyrrolo[1,2-b]pyrazol-4-yl)-3-methoxybicyclo[1.1.1]pentane-1-carboxamide] | < 250 |
| CC(F)(F)C12CC(C(=O)N[C@H]3CCn4nc(-c5cc(C(F)(F)F)ncc5F)cc43)(C1)C2 [Compound I-526a, (S)-3-(1,1-Difluoroethyl)-N-(2-(5-fluoro-2-(trifluoromethyl)pyridin-4-yl)-5,6-dihydro-4H-pyrrolo[1,2-b]pyrazol-4-yl)bicyclo[1.1.1]pentane-1-carboxamide] | < 250 |
| O=C(N[C@H]1CCn2nc(-c3cc(C(F)(F)F)ncc3F)cc21)C12CC(C(F)F)(C1)C2 [Compound I-527a, (S)-3-(Difluoromethyl)-N-(2-(5-fluoro-2-(trifluoromethyl)pyridin-4-yl)-5,6-dihydro-4H-pyrrolo[1,2-b]pyrazol-4-yl)bicyclo[1.1.1]pentane-1-carboxamide] | < 250 |
| CC(F)(F)c1cc(C(=O)N[C@H]2CCn3nc(-c4ccnc(C(F)(F)F)c4)cc32)ccn1 [Compound I-528a, (S)-2-(1,1-Difluoroethyl)-N-(2-(2-(trifluoromethyl)pyridin-4-yl)-5,6-dihydro-4H-pyrrolo[1,2-b]pyrazol-4-yl)isonicotinamide] | < 250 |
| O=C(N[C@H]1CCCn2nc(-c3ccnc(C(F)(F)F)c3)cc21)c1cnn(C(F)(F)F)c1C(F)(F)F [Compound I-529a, (S)-1,5-bis(trifluoromethyl)-N-(2-(2-(trifluoromethyl)pyridin-4-yl)-4,5,6,7-tetrahydropyrazolo[1,5-a]pyridin-4-yl)-1H-pyrazole-4-carboxamide] | < 250 |
| O=C(N[C@H]1CCCc2oc(-c3ccnc(C4CC4)c3)nc21)c1cnn(C(F)(F)F)c1C(F)(F)F [Compound I-530a, (S)—N-(2-(2-cyclopropylpyridin-4-yl)-4,5,6,7-tetrahydrobenzo[d]oxazol-4-yl)-1,5-bis(trifluoromethyl)-1H-pyrazole-4-carboxamide] | < 250 |
| O=C(N[C@H]1CCCc2oc(-c3ccnc(C(F)(F)F)c3)nc21)c1cnn(C(F)(F)F)c1C(F)(F)F [Compound I-531a, (S)-1,5-bis(trifluoromethyl)-N-(2-(2-(trifluoromethyl)pyridin-4-yl)-4,5,6,7-tetrahydrobenzo[d]oxazol-4-yl)-1H-pyrazole-4-carboxamide] | < 250 |
| O=C(N[C@H]1CCn2nc(-c3ccnc(C(F)(F)F)c3)cc21)c1cnn(C(F)(F)F)c1C(F)(F)F [Compound I-532a, (S)-1,5-bis(trifluoromethyl)-N-(2-(2-(trifluoromethyl)pyridin-4-yl)-5,6-dihydro-4H-pyrrolo[1,2-b]pyrazol-4-yl)-1H-pyrazole-4-carboxamide] | < 250 |
| CC(F)(F)c1cc(-c2nc3c(o2)CCC[C@@H]3NC(=O)c2cncc(C(F)(F)F)c2)ccn1 [Compound I-533a, (S)—N-(2-(2-(1,1-Difluoroethyl)pyridin-4-yl)-4,5,6,7-tetrahydrobenzo[d]oxazol-4-yl)-5-(trifluoromethyl)nicotinamide] | < 250 |
| O=C(N[C@H]1CCn2nc(-c3cc(C(F)(F)F)ncc3F)cc21)c1ccnc(OC(F)(F)F)c1 [Compound I-536a, (S)-N-(2-(5-Fluoro-2-(trifluoromethyl)pyridin-4-yl)-5,6-dihydro-4H-pyrrolo[1,2-b]pyrazol-4-yl)-2-(trifluoromethoxy)isonicotinamide] | < 250 |
| Cn1nc(C(F)(F)F)cc1C(=O)N[C@H]1CCn2nc(-c3ccnc(C(C)(F)F)c3)cc21 [Compound I-537a, (S)-N-(2-(2-(1,1-Difluoroethyl)pyridin-4-yl)-5,6-dihydro-4H-pyrrolo[1,2-b]pyrazol-4-yl)-1-methyl-3-(trifluoromethyl)-1H-pyrazole-5-carboxamide] | < 250 |
| CC(F)(F)c1cc(-c2cc3n(n2)CC[C@@H]3NC(=O)c2cnn(C(F)(F)F)c2)ccn1 [Compound I-538a, (S)-N-(2-(2-(1,1-Difluoroethyl)pyridin-4-yl)-5,6-dihydro-4H-pyrrolo[1,2-b]pyrazol-4-yl)-1-(trifluoromethyl)-1H-pyrazole-4-carboxamide] | < 250 |
| O=C(N[C@H]1CCn2nc(-c3cc(C(F)(F)F)ncc3F)cc21)C12CC(CC(F)(F)F)(C1)C2 [Compound I-539a] | < 250 |
| O=C(N[C@H]1CCn2nc(-c3cc(C(F)(F)F)ncc3F)cc21)C12CC(CF)(C1)C2 [Compound I-540a, (S)-N-(2-(5-Fluoro-2-(trifluoromethyl)pyridin-4-yl)-5,6-dihydro-4H-pyrrolo[1,2-b]pyrazol-4-yl)-3-(fluoromethyl)bicyclo[1.1.1]pentane-1-carboxamide] | < 250 |
| CCOc1cc(C(=O)N[C@H]2CCn3nc(-c4ccnc(C5CC5)c4)cc32)ccn1 [Compound I-541a, (S)-N-(2-(2-Cyclopropylpyridin-4-yl)-5,6-dihydro-4H-pyrrolo[1,2-b]pyrazol-4-yl)-2-ethoxyisonicotinamide] | < 250 |
| CC(C)Oc1cc(C(=O)N[C@H]2CCn3nc(-c4ccnc(C5CC5)c4)cc32)ccn1 [Compound I-542a, (S)-N-(2-(2-Cyclopropylpyridin-4-yl)-5,6-dihydro-4H-pyrrolo[1,2-b]pyrazol-4-yl)-2-isopropoxyisonicotinamide] | < 250 |
| O=C(N[C@H]1CCn2nc(-c3ccnc(C4CC4)c3)cc21)c1ccnc(OC(F)(F)F)c1 [Compound I-543a, (S)-N-(2-(2-Cyclopropylpyridin-4-yl)-5,6-dihydro-4H-pyrrolo[1,2-b]pyrazol-4-yl)-2-(trifluoromethoxy)isonicotinamide] | < 250 |
| CC(F)(F)c1cc(-c2nc3c(o2)CCC[C@@H]3NC(=O)c2cncc(F)c2)ccn1 [Compound I-544a, (S)—N-(2-(2-(1,1-difluoroethyl)pyridin-4-yl)-4,5,6,7-tetrahydrobenzo[d]oxazol-4-yl)-5-fluoronicotinamide] | < 250 |
| CC(F)(F)c1cc(-c2nc3c(o2)CCC[C@@H]3NC(=O)c2cn(C(F)(F)F)nc2C(F)(F)F)ccn1 [Compound I-545a, (S)—N-(2-(2-(1,1-difluoroethyl)pyridin-4-yl)-4,5,6,7-tetrahydrobenzo[d]oxazol-4-yl)-1,3-bis(trifluoromethyl)-1H-pyrazole-4-carboxamide] | < 250 |
| CC(C)Oc1cc(C(=O)N[C@H]2CCn3nc(-c4cc(C(F)(F)F)ncc4F)cc32)ccn1 [Compound I-546a, (S)-N-(2-(5-Fluoro-2-(trifluoromethyl)pyridin-4-yl)-5,6-dihydro-4H-pyrrolo[1,2-b]pyrazol-4-yl)-2-isopropoxyisonicotinamide] | < 250 |
| O=C(N[C@H]1CCn2nc(-c3cc(C(F)(F)F)ncc3F)cc21)c1ccnc(OC(F)F)c1 [Compound I-547a, (S)-2-(Difluoromethoxy)-N-(2-(5-fluoro-2-(trifluoromethyl)pyridin-4-yl)-5,6-dihydro-4H-pyrrolo[1,2-b]pyrazol-4-yl)isonicotinamide] | < 250 |
| Cn1nc(C(F)(F)F)nc1C(=O)N[C@H]1CCn2nc(-c3cc(C(F)(F)F)ncc3F)cc21 [Compound I-548a, (S)—N-(2-(5-Fluoro-2-(trifluoromethyl)pyridin-4-yl)-5,6-dihydro-4H-pyrrolo[1,2-b]pyrazol-4-yl)-1-methyl-3-(trifluoromethyl)-1H-1,2,4-triazole-5-carboxamide] | < 250 |
| O=C(N[C@H]1CCn2nc(-c3cc(C(F)(F)F)ncc3F)cc21)c1ccn2nccc2c1 [Compound I-549a] | < 250 |
